# Data as given in US10106818B2, “Dual-color HIV reporter system for the detection of latently-infected cells” (priority 2013, dated 2018).
# How the values were obtained:
# [1] = tested on: R7GEmC infection of activated CD4+ T cells; experiment: Infection of activated CD4+ T cells with R7GEmC in the presence of integrase inhibitor (pre-integration latency); type: cell-based, HIV-1; conditions: 30 μM Raltegravir; after 3 days
# Description: HIV latency in vivo is reported to result, in part, from pre-integration latency, whereby unintegrated proviral DNA (after full retrotranscription) is maintained in a stable cytoplasmic form in a quiescent cell, and can respond to cell activation by de novo integration and productive infection. To rule out pre-integration latency, activated CD4^+ T cells were infected with R7GEmC in the presence of the HIV integrase inhibitor raltegravir (FIG. 6A).
# (a) FACS analysis of activated CD4^+ T cells from two human donors (#1, #2) infected with R7GEMC alone or with 30 μM Raltegravir (RALTE 30). (b) Analysis of sorted CD4^+ T-cell populations from donors 1 and 2, after 48 h with anti-CD3/CD28-coated Dynabeads (αCD3/28), alone, with 30 μM Raltegravir, or untreated (CTR).
# [2] = tested on: latent provirus in mCherry-only R7GEmC-infected primary CD4+ T cells; experiment: Reactivation of sorted mCherry-only (latent) primary CD4+ T cells infected with R7GEmC; type: cell-based, HIV-1; conditions: for response of mCherry-only positive cells to treatment: three pooled donors, 1 μM prostratin, 1 μM SAHA
# Procedure: HEK293T, Jurkat, A301 and SupT1 cell lines were obtained from ATCC. Suspension cells were cultured in RPMI 1640 supplemented with 10% FBS, 100 U/ml penicillin, […] streptomycin and 2 mM L-glutamine (PSG) (37° C., 5% CO2). Peripheral blood from healthy human donors was obtained from the Stanford Blood Center and processed the day of collection. CD4^+ T cells were isolated with RosetteSep Human CD4^+ T-Cell Enrichment Cocktail (Stem Cell Technologies) and cultured in human cell medium (HCM, RPMI, 10% human AB pooled serum, PSG). Resting CD4^+ T cells were activated in U-bottom 96-well TC plates with 25 μl human anti-CD3 and anti-CD28-coated dynabeads/10^6 cells (48 h). Dynabeads were removed by magnetic separation and cells seeded in HCM with 30 IU/ml rhIL-2. Cell lines and activated CD4^+ cells were infected by spinoculation (Lassen et al., PLoS One. 2012; 7(1):e30176, which is hereby incorporated by reference in its entirety) with a virus amount equivalent to 20 ng p24 or as indicated. Viral infection was assessed by fluorescence activated cell sorting (FACS) analysis after 72 h. At 5 days post-infection, cells were sorted to separate negative, single- or double-positive cells. Sorted cell lines were treated after re-expansion for 5-15 days. Cells were seeded in 96-well U plates and treated for 24 h before analysis. […]
# The extent to which mCherry-only-positive populations could be reactivated by further stimulation was next evaluated. […]
# (a) FACS analysis of activated CD4^+ T cells from two human donors (#1, #2) infected with R7GEmC at indicated virus amounts. (b) Fluorescence microscopy image of infected CD4^+ T cells showing mCherry-positive (latent, red) and GFP-positive (active, green) cells. (c) qPCR quantification of proviral DNA in the sorted populations, using primer-probe combinations for the HIV-1 gag gene and the RNAseP gene for normalization. […] (d) Western blot quantification of HIV gag and cell α-actin in sorted CD4^+ T cell populations from pooled donors. […]
# [3] = tested on: latent HIV in sorted latent-cell populations (GFP-only-positive 89mASG Jurkat T cells); experiment: Co-treatment with low levels of SAHA, prostratin or TNFα, FACS; type: cell-based, HIV-1; conditions: 24 h; for effect on HIV latency in combination with SAHA: 10 μM with low SAHA (0.5 μM); for interaction with prostratin: with low prostratin (0.5 μM)
# Description: Thus, it might be of interest to identify compounds that can potentiate HIV reactivation by SAHA or prostratin or TNFα.
# (§1) Sorted 89mASG-infected, GFP-only-positive Jurkat cells were used to test the Tocriscreen drug library for latent HIV reactivation (see Methods). (a) Dot plot showing quantification of total blue area (Hoechst 33342 signal, total cell) against total red area (mApple signal, reactivated HIV). Red dots indicate the position of untreated wells (Negative controls); the shaded area indicates the median±2SD of the red/blue area ratio for negative control wells. Green dots indicate positive control wells, treated with 10 ng/ml TNFα, 5 μM prostratin or 2.5 μM SAHA and their combinations. […] Representative FACS plots of sorted single-positive Jurkat T cells for both viruses. The productive gate contains the reactivated cells. […] (c,d) Histogram plot of percent population in the productive gate (grey) for each treatment and percentage of cells in the live gate (light blue) for sorted single-positive Jurkat T cells for 89mASG (c) and R7GEmC (d) reporters. Data shown as mean±SD for three different treatments. For each compound, a grey triangle between the histograms indicates decreasing drug concentration (30, 10 and 3 μM). […] (e) FACS analysis of drug treatments combined with 0.5 μM SAHA, 0.5 μM prostratin and 0.5 ng/ml TNFα. Representative FACS plots of sorted GFP-only-positive Jurkat T cells for 89mASG treated with DMSO (control), SAHA (0.5 μM) alone or with terreic acid (10 μM) and dilazep (30 μM). (f) Histogram plot of percent population of the sorted cells in the productive gate for each treatment at indicated concentrations (μM).
# [4] = tested on: latent HIV in 89mASG- and R7GEmC-infected single-positive Jurkat T cells; experiment: Reactivation of latent HIV in sorted single-positive (latent) Jurkat T cells, FACS; type: cell-based, HIV-1; conditions: for reactivation activity (percent population in the productive gate): 89mASG and R7GEmC single-positive latent populations, 30, 10 and 3 μM; for expression of HIV promoter-dependent reporter: 89mASG and R7GEmC latent Jurkat T cells, 10 ng/ml TNFα, 5 μM prostratin or 2.5 μM SAHA alone
# HIV RNA expression = conditions: recent study; cited from earlier work
# [5] = tested on: latent HIV in sorted GFP-only 89mASG-infected Jurkat cells; experiment: High-throughput imaging screen for latent HIV reactivation (Tocriscreen library); type: cell-based, HIV-1; conditions: 24 hr; for red signal (mApple, reactivated virus) versus negative controls: positive control wells, 10 ng/ml TNFα, 5 μM prostratin or 2.5 μM SAHA and combinations; for reactivation of latent HIV in the screen: 30 μM, total red area higher than median+2 SD of negative control wells
# Description: as §1
molecule,measurement,setting,value
Cc1nnc(C(=O)NC(C)(C)c2nc(C(=O)NCc3ccc(F)cc3)c(O)c(=O)n2C)o1 [raltegravir],integration-independent expression of the fluorescent proteins,[1],no integration-independent expression of the fluorescent proteins
same,effect on viral reactivation in the mCherry-only-positive population,"[2]; 30 μM Raltegravir with anti-CD3/CD28-coated Dynabeads, 48 h",did not reduce viral reactivation
COc1cc(C(=O)OCCCN2CCCN(CCCOC(=O)c3cc(OC)c(OC)c(OC)c3)CC2)cc(OC)c1OC [dilazep],effect on HIV latency in combination with SAHA,[3],strongly enhanced the effect of low SAHA concentrations
same,interaction with prostratin,[3],synergistic with prostratin
same,reactivation activity (percent population in the productive gate),[4],slight but significant reactivation activity
"O=C(CCCCCCC(=O)Nc1ccccc1)NO [SAHA, suberoylanilide hydroxamic acid]",expression of HIV promoter-dependent reporter,[4],increased expression of HIV promoter-dependent reporter
same,response of mCherry-only positive cells to treatment,[2],A subset of less-bright mCherry-only positive cells also responded
same,reactivation of HIV RNA expression in patients,HIV RNA expression,can reactivate HIV RNA expression in a subset of patients
same,"red signal (mApple, reactivated virus) versus negative controls",[5],notably higher red signal
TNF-α,expression of HIV promoter-dependent reporter,[4],increased expression of HIV promoter-dependent reporter
same,"red signal (mApple, reactivated virus) versus negative controls",[5],notably higher red signal
"CC(=O)O[C@@]12C[C@@H](C)[C@@]3(O)[C@@H](C=C(CO)C[C@]4(O)C(=O)C(C)=C[C@@H]34)[C@@H]1C2(C)C [prostratin, (1aR,1bS,4aR,7aS,7bR,8R,9aS)-4a,7b-dihydroxy-3-(hydroxymethyl)-1,1,6,8-tetramethyl-5-oxo-1,1a,1b,4,4a,5,7a,7b,8,9-decahydro-9aH-cyclopropa[3,4]benzo[1,2-e]azulen-9a-yl]",expression of HIV promoter-dependent reporter,[4],increased expression of HIV promoter-dependent reporter
same,response of mCherry-only positive cells to treatment,[2],A subset of less-bright mCherry-only positive cells also responded
same,"red signal (mApple, reactivated virus) versus negative controls",[5],notably higher red signal
"N#C/C(=C\c1ccc(O)c(O)c1)C(=O)NCCCc1ccccc1 [AG555, α-Cyano-(3,4-dihydroxy)-N-(3-phenylpropyl)cinnamide]",reactivation activity (percent population in the productive gate),[4],slight but significant reactivation activity
"CC1=C(O)C(=O)[C@@H]2O[C@@H]2C1=O [terreic acid, (−)-terreic acid]",effect on HIV latency in combination with SAHA,[3],strongly enhanced the effect of low SAHA concentrations
same,interaction with TNFα,[3]; with low TNFα (0.5 ng/ml),synergistic interaction in most combinations except terreic acid
same,interaction with prostratin,[3],synergistic with prostratin
same,reactivation activity (percent population in the productive gate),[4],slight but significant reactivation activity
O=c1c(-c2ccc(O)cc2)coc2cc(O)cc(O)c12 [genistein],reactivation of latent HIV in the screen,[5],reactivated latent HIV
O=C1C(SCCO)=C(SCCO)C(=O)c2ccccc21 [NSC 95397],reactivation activity (percent population in the productive gate),[4],clear artifacts or false positives
"CN1CCc2cccc3c2[C@H]1Cc1ccc(O)c(O)c1-3 [apomorphin, apomorphine]",reactivation activity (percent population in the productive gate),[4],distinct effects in the two HIV clones
Oc1ccc(C=Cc2cc(O)cc(O)c2)cc1 [resveratrol],reactivation of latent HIV in the screen,[5],reactivated latent HIV
